From patent US7713956B2, “Dealkylated derivatives of pyrrolo[2,1-b]benzothiazepines with atypical antipsychotic activity” (Sigma-Tau Industrie Farmaceutiche Riunite S.p.A., priority 2004, dated 2010)
Values joined by “and” are separate entries in the source; they are usually repeats but may differ in a detail not shown here. Equal values may be shown once.

Tests used:
[1] = In vitro metabolic stability / metabolic profile in mouse hepatic microsomes; assay type: in vitro ADME, Mouse (CD1); settings: for metabolic profile (metabolites formed): mouse hepatic microsomes 0.5 mg/ml, 10 μg/ml test item, 37° C. up to 120 minutes
Description: (§1) In this study the metabolic profiles of ST1899 and its metabolite ST2472 were determined in rat, mouse and monkey microsomes.
(§2) ST1899 and ST2472 were separately incubated with the hepatic microsomes. Separate experiments were carried out for each animal species investigated. For each experiment, in addition to the test item, 7-ethoxycoumarin (Sigma-Aldrich) was also incubated as a probe for evaluating the metabolic activity of the microsomes: 7-hydroxycoumarin was identified on the basis of the retention times in comparison with those of synthesized standard and used as marker of oxidative metabolism Both the test item and the 7-ethoxycoumarin were incubated at 37° C. up to 120 minutes.
(§3) MgCl2, β-D-glucose-6-phosphate, βNADP and Glucose-6-phosphate dehydrogenase were used for preparing the NADPH regenerating solution (NRS). 250 μl of 0.1 M pH 7.4 KH2PO4 buffer, 100 μl of NRS and 50 μl of test item (or 7-ethoxycoumarin) standard solution were added to 2 ml Eppendorf test tubes. In the samples, incubated either without microsomes or test items, an equal volume of 0.1 M pH 7.4 KH2PO4 buffer was added.
(§4) The reaction was started by adding 100 μl of the microsomal suspension to the samples and stopped at selected times by adding 500 μl of methanol. Samples were shaken and centrifuged at 8000 RPM for 10 minutes at 4° C. Supernatants were used for the HPLC analysis. 7-ethoxycoumarin, ST1899 and ST2472 were analyzed according to the HPLC methods described below.

[2] = In vitro metabolic stability / metabolic profile in rat hepatic microsomes; assay type: in vitro ADME, Rat (Sprague Dawley); settings: for metabolic profile (metabolites formed): rat hepatic microsomes 0.5 mg/ml, 10 μg/ml test item, 37° C. up to 120 minutes
Description: as §1, §2, §3, §4

[3] = test system: Male Fischer 344 rats; test: Active Avoidance Test (conditioned avoidance response), oral treatment; assay type: in vivo, rat; settings: for ED50 / effect on avoidance responses: oral; for ED50: 60 minutes prior to the test, rat, avoidance rate variable, read-out: ED50 (dose reducing avoidance responses by 50% compared to basal values); for effect on avoidance responses: over the active doses tested (ST1469 0.75-6 mg/kg; ST2087 2-8 mg/kg; ST2472 0.5-2 mg/kg)
Excerpt: Evaluation of the Antipsychotic Potency of ST1469 and ST1899 and their Respective Desmethyl Derivatives ST2087 and ST2472. Effect of Treatment in the Active Avoidance Test.
The administration of incremental doses of an antipsychotic drug in the rat causes the inhibition of the avoidance response and an increase in the number of escape responses without any increase in non-responses (failures). This modification of the avoidance behaviour of the animals is characteristic of the effect of the administration of a compound with antipsychotic activity, which selectively blocks the conditioned response within given dosage ranges. This behavioural assessment makes it possible to detect and determine the antipsychotic capacity of a product.
Male Fischer 344 rats weighing 180 g (Charles River) were used. The products ST1469 and ST2087 were administered to the animals orally, 60 minutes prior to the test. The product ST1469 was administered at doses of 0.75 mg/5 ml/kg (1.84 μmol/kg), 1.5 mg/5 ml/kg (3.69 μmol/kg), 3 mg/5 ml/kg (7.37 μmol/kg), and 6.0 mg/5 ml/kg (14.7 μmol/kg).
For the product ST2087 the following doses were used: 2 mg/5 ml/kg (6.25 μmol/kg), 3 mg/5 ml/kg (9.38 μmol/kg), 4 mg/5 ml/kg (12.50 μmol/kg), 6 mg/5 ml/kg ([…]) and 8 mg/5 ml/kg (25.01 μmol/kg).
To perform the avoidance behaviour assessment test, a piece of equipment (Ugo Basile) was used consisting of a plastic cage divided into two compartments by a partition wall with an opening in it allowing communication between the two sectors. Each of the two sectors can be illuminated by a 10-Watt lamp placed above a plexiglass cover covering the cage. A programming device permits the regulation of the duration and frequency of the un-conditioned and discriminatory stimuli, and a computerised system acquires the experimental data. During the study the discriminatory stimulus (light was delivered 3 seconds prior to the unconditioned stimulus (0.3 mA electric shock for 4 seconds). One test per minute was performed in each session making a total of 20 tests per day. One session per day administered.
The procedure consists in a 1 minute period of familiarisation of the rats in the test cage, followed by the series of tests the start of which is signalled by the light stimulus; the discriminatory stimulus is followed, a few seconds later, by the administration of an electric shock. The rats can avoid the shock by escaping into the adjoining compartment. The responses produced after switching on the light and before the electric shock interrupt the discriminatory stimulus and are considered “avoidances”; the responses produced during the shock period terminate both the discriminatory stimulus and the unconditioned stimulus and are considered “escapes”; non-avoidances are considered “failures”.
Prior to the treatment with the study compounds, the animals were selected in relation to their ability to acquire the task. Admitted to the test assessing the effect of treatment were those rats that produced at least 75% of avoidances in the basal tests.
The results were expressed as means and standard errors. On the basis of the number of conditioned responses (avoidances), the dose of product capable of reducing the value of this variable by 50% (ED50) compared to basal values was calculated by means of non-linear regression using the GraphPad Prism data analysis program.

[4] = In vitro metabolic stability / metabolic profile in monkey hepatic microsomes; assay type: in vitro ADME, Monkey (Cynomolgus); settings: for metabolic profile (metabolites formed): monkey hepatic microsomes 0.5 mg/ml, 10 μg/ml test item, 37° C. up to 120 minutes
Description: as §1, §2, §3, §4

[5] = Pharmacokinetics after oral administration of a 60 μmol/kg dose in the rat; assay type: in vivo
Excerpt: Pharmacokinetics of the Compound ST1469 and its Corresponding Des Methyl Derivative ST2087
Effect of the Oral Administration of a 60 μmol/kg Dose of Each Product in the Rat
Administration of ST1469 in the Rat (Table 1).
Administration of ST2087 in the Rat (Table 1)

[6] = 60 umol/kg, analyte = administered product, oral 60 μmol/kg, rat, plasma, mean

Row | SMILES | metabolic stability compared with ST1899 ([1]; mouse hepatic microsomes) | metabolic profile (metabolites formed) [1] | metabolic stability compared with ST1899 ([2]; rat hepatic microsomes) | metabolic profile (metabolites formed) [2] | effect on behaviour of the animals ([3]; ST2472 at 0.25 mg/kg (0.88 μmol/kg)) | ED50 [3] | effect on avoidance responses [3] | metabolic stability compared with ST1899 ([4]; monkey hepatic microsomes) | metabolic profile (metabolites formed) [4] | AUC [5, 6] | Cmax [5, 6] | half-life [5, 6] | concentrations at the systemic level when administered as such ([5]; oral ST2087 60 μmol/kg versus ST2087 formed after ST1469, rat) | Tmax ([5]; rat, plasma, po, 60 umol/kg, analyte = administered product, oral 60 μmol/kg, mean)
1 | C1=C(N2CCNCC2)c2ccccc2Sc2cccn21 [ST2472, 9-Piperazin-1-yl-pyrrolo[2,1-b][1,3]benzothiazepine] | metabolically more stable than ST1899 | metabolized almost exclusively to M2 | metabolically more stable than ST1899 | almost exclusively metabolized to M2 | does not significantly modify the behaviour of the animals | 1.43 mg/kg and 5.05 µmol/kg | causes a progressive reduction of the avoidance responses and an increase in escapes | metabolically more stable than ST1899 | the main metabolite obtained was M3 |  |  |  |  | 
2 | Clc1ccc2c(c1)C(N1CCNCC1)Cn1cccc1S2 (racemic) [ST2087, (±)-7-chloro-9-(piperazin-1-yl)-9,10-dihydropyrrolo[2,1-b][1,3]-benzothiazepine] |  |  |  |  |  | 3.27 mg/kg and 10.2 µmol/kg | capable of reducing the production of avoidance responses |  |  | 32.2 µM·h | 4.09 µM | 4.4 h | much higher concentrations than those measured after its formation as a result of administration of ST1469 | ≤ 2 h
3 | CN1CCN(C2=Cn3cccc3Sc3ccccc32)CC1 [ST1899, 9-(4-methylpiperazin-1-yl)-pyrrolo[2,1-b]-[1,3]benzothiazepine, reference compound] |  | metabolized mainly to M1 |  | extensively metabolized to ST2472 |  | 1.09 mg/kg and 3.66 µmol/kg |  |  | metabolized to ST2472 and to the metabolites M3 and M4 |  |  |  |  | 
